Test results taken from patent publication US20230270798A1, “SYNBIOTIC COMPOSITION” (SOCIETE DES PRODUITS NESTLE S.A., priority 2020, published 2023).

Assays:
Streptococcus salivarius = assay: Short-term colonic incubation, population of Streptococcus salivarius (16S Illumina sequencing with flow cytometry); format: cell-based
Experimental: (§1) The aim of this project was to evaluate the properties of a synbiotic combination of Bifidobacterium longum subsp. longum ATCC BAA-999 and LNT using short-term colonic incubations (48 h), in which the proximal colon environment of a baby was simulated. The evaluation was based on the effects on microbial metabolic activity (SCFA, lactate and ammonium production) and community composition (16Stargeted Illumina sequencing), through comparison with a blank (no treatment), a probiotic (containing only the B. longum subsp. longum strain) and a prebiotic (containing only LNT).
(§2) In these experiments, a simplified simulation of the continuous Simulator of the Human Microbial Ecosystem (SHIME®) was used. […]
(§3) To account for biological variability, all tests were performed in triplicate, resulting in 12 independent incubations. […] Ammonium concentrations were measured at the start and after 48 h of incubation. The effect on the gut microbial community was assessed through Illumina sequencing at the start of the incubation and after 6 h, and 48 h. […]

B. longum subsp. longum = assay: Short-term colonic incubation, population of B. longum subsp. longum (16S Illumina sequencing with flow cytometry); format: cell-based, Bifidobacterium longum subsp. longum; conditions: after 6 and 48 hours of incubation; synbiotic compared to the probiotic alone
Experimental: as §1, §2, §3

With `CC(=O)N[C@H]1[C@H](O[C@H]2[C@@H](O)[C@@H](CO)O[C@@H](O[C@H]3[C@H](O)[C@@H](O)C(O)O[C@@H]3CO)[C@@H]2O)O[C@H](CO)[C@@H](O)[C@@H]1O[C@@H]1O[C@H](CO)[C@H](O)[C@H](O)[C@H]1O` (stereo partly drawn) [prebiotic, Lacto-N-tetraose] the “population of S. salivarius at 48 hours compared to the population at 6 hours (in words)” value (Streptococcus salivarius; 48 hours vs 6 hours) was “strongly decreases”, the “boost of the population of Streptococcus salivarius (in words)” value (Streptococcus salivarius; after 6 and 48 hours of incubation) was “neither the probiotic alone, nor the prebiotic alone were able to boost” and the “population of B. longum subsp. longum (in words)” value (B. longum subsp. longum) was “no effect”.
